Measurements taken from patent US4112217A, “Bis-hydrazones of daunomycin and adriamycin” (SRI International, priority 1977, dated 1978).
Structures can show the parent of a compound that is named as a salt. Where two headings read alike, the source gives them in different places.

How the values were obtained:
P388 Leukemia in Mice = test: Antitumor efficacy vs lymphocytic leukemia P388 implanted in mice (NCI protocol); assay type: in vivo, mice (murine)
Method: (§1) Biological testing data for compounds of this invention as the HCl salts, as well as for adriamycin and daunomycin, are presented in the table given below. The compounds were tested first in cultured lymphoid leukemia L1210 cells for inhibition of nucleic acid synthesis by previously reported procedures. The analogs were then tested against lymphocytic leukemia P388 implanted in mice, under the auspices of the NCI and according to its protocols which use the increased survival time of treated mice compared to controls as the measure of antitumor efficacy.
^c Ip P388 murine leukemia treated ip on QD1-9 and Q4D 5, 9, 13
schedules according to standard NCI protocols. Assay described in R. I.
Geran, N. H. Greenberg, M. M. MacDonald, A. M. Schumacker and B. J.
Abbott, Cancer Chemother. Rep., Part 3, 3 (No. 2), 9 (1972), Protocol
1,200. T/C = ratio of survival time of treated mice to that of untreated
controls times 100. Untreated controls survive about 9 days.

[1] = tested on: Cultured L1210 Leukemia Cells; test: Inhibition of DNA synthesis in cultured lymphoid leukemia L1210 cells; assay type: cell-based; settings: Mus musculus
Method: as §1
(§2) ^b Assay described in G. Tong, W. W. Lee, D. R. Black and D. W. Henry

[2] = tested on: Cultured L1210 Leukemia Cells; test: Inhibition of RNA synthesis in cultured lymphoid leukemia L1210 cells; assay type: cell-based; settings: Mus musculus
Method: as §1, §2

[3] = Mus musculus, ip P388, treated ip, q4d 5,9,13, optimum dose 8 mg/kg, read-out: Antitumor Efficacy T/C
[4] = L1210, read-out: Inhibition of Synthesis of DNA, ED50
[5] = L1210, read-out: Inhibition of Synthesis of RNA, Ed50
[6] = Mus musculus, P388, ip, read-out: Antitumor Efficacy T/C
[7] = cultured L1210 leukemia cells, DNA synthesis, read-out: Inhibition of Synthesis of DNA, ED50
[8] = cultured L1210 leukemia cells, RNA synthesis, read-out: Inhibition of Synthesis of RNA, Ed50
[9] = Mus musculus, P388, ip, ip P388, treated ip, qd 1-9, optimum dose 6.25 mg/kg, read-out: Antitumor Efficacy T/C
[10] = Mus musculus, P388, ip, ip P388, treated ip, q4d 5,9,13, optimum dose 25 mg/kg, read-out: Antitumor Efficacy T/C

With `COc1cccc2c1C(=O)c1c(O)c3c(c(O)c1C2=O)C[C@@](O)(C(=O)CO)C[C@@H]3O[C@H]1C[C@H](N)[C@H](O)[C@H](C)O1` [Adriamycin] the response vs control in vivo at 8 mg/kg (P388 Leukemia in Mice; [3]) was 157%, the response vs control in vivo at 1 mg/kg (P388 Leukemia in Mice; Mus musculus, ip P388, treated ip, qd 1-9, optimum dose 1.0 mg/kg, read-out: Antitumor Efficacy T/C) was 195% and the IC50 [1, 4] was 1.5 µM. For the same compound, the IC50 [2, 5] was 0.67 µM.

Compound `COc1cccc2c1C(=O)c1c(O)c3c(c(O)c1C2=O)C[C@@](O)(C(C)=O)C[C@@H]3O[C@H]1C[C@H](N)[C@H](O)[C@H](C)O1` [Daunomycin] has a response vs control in vivo at 8 mg/kg (P388 Leukemia in Mice; [3]) of 134%, a response vs control in vivo at 0.5 mg/kg (P388 Leukemia in Mice; Mus musculus, ip P388, treated ip, qd 1-9, optimum dose 0.5 mg/kg, read-out: Antitumor Efficacy T/C) of 166% and an IC50 [1, 4] of 0.49 µM. The IC50 [2, 5] was 0.39 µM.

Work on `COc1cccc2c1C(=O)c1c(O)c3c(c(O)c1C2=O)C[C@@](O)(C(C)=NNC(=O)CCC(=O)NN=C(C)[C@]1(O)Cc2c(O)c4c(c(O)c2[C@@H](O[C@H]2C[C@H](N)[C@H](O)[C@H](C)O2)C1)C(=O)c1c(OC)cccc1C4=O)C[C@@H]3O[C@H]1C[C@H](N)[C@H](O)[C@H](C)O1` [I, Bis(daunomycin) Succinylhydrazone Dihydrochloride] yielded a response vs control in vivo at 6.25 mg/kg (P388 Leukemia in Mice; [6]) of 283%, a response vs control in vivo at 12.5 mg/kg (P388 Leukemia in Mice; [6]) of 307% and a response vs control in vivo at 20 mg/kg (P388 Leukemia in Mice; [6]) of 170%. The “treated mice survived until sacrifice at 30 days” value (P388 Leukemia in Mice; qd 1-9, 6.25 mg/kg, sacrifice at 30 days) was “Three out of six”, the “treated mice survived until sacrifice at 45 days” value (P388 Leukemia in Mice; qd 1-9, 12.5 mg/kg, sacrifice at 45 days) was “Two out of six” and the IC50 [1, 4] was 13 µM. For the same compound, the IC50 [2, 5] was 3.4 µM.

Compound `COc1cccc2c1C(=O)c1c(O)c3c(c(O)c1C2=O)C[C@@](O)(C(C)=NNC(=O)CCCC(=O)NN=C(C)[C@]1(O)Cc2c(O)c4c(c(O)c2[C@@H](O[C@H]2C[C@H](N)[C@H](O)[C@H](C)O2)C1)C(=O)c1c(OC)cccc1C4=O)C[C@@H]3O[C@H]1C[C@H](N)[C@H](O)[C@H](C)O1` [II, Bis(daunomycin) Glutarylhydrazone Dihydrochloride] has a response vs control in vivo at 1.56 mg/kg (P388 Leukemia in Mice; Mus musculus, P388, ip, ip P388, treated ip, qd 1-9, optimum dose 1.56 mg/kg, read-out: Antitumor Efficacy T/C) of 188%, a response vs control in vivo at 3.12 mg/kg (P388 Leukemia in Mice; Mus musculus, P388, ip, ip P388, treated ip, qd 1-9, optimum dose 3.12 mg/kg, read-out: Antitumor Efficacy T/C) of 149% and an IC50 [1, 7] of 4.5 µM. The IC50 [2, 8] was 3.6 µM.

In the case of `COc1cccc2c1C(=O)c1c(O)c3c(c(O)c1C2=O)C[C@@](O)(C(C)=NNC(=O)CCCCC(=O)NN=C(C)[C@]1(O)Cc2c(O)c4c(c(O)c2[C@@H](O[C@H]2C[C@H](N)[C@H](O)[C@H](C)O2)C1)C(=O)c1c(OC)cccc1C4=O)C[C@@H]3O[C@H]1C[C@H](N)[C@H](O)[C@H](C)O1` [III, Bis(daunomycin) Adipylhydrazone Dihydrochloride], the response vs control in vivo at 37.5 mg/kg (P388 Leukemia in Mice; Mus musculus, P388, ip, ip P388, treated ip, q4d 5,9,13, optimum dose 37.5 mg/kg, read-out: Antitumor Efficacy T/C) is reported as 196%, the response vs control in vivo at 6.25 mg/kg (P388 Leukemia in Mice; [9]) is reported as 281% and the IC50 [1, 7] is reported as 8.9 µM. It also gave an IC50 [2, 8] of 3.6 µM.

Compound `COc1cccc2c1C(=O)c1c(O)c3c(c(O)c1C2=O)C[C@@](O)(C(C)=NNC(=O)CCCCCCC(=O)NN=C(C)[C@]1(O)Cc2c(O)c4c(c(O)c2[C@@H](O[C@H]2C[C@H](N)[C@H](O)[C@H](C)O2)C1)C(=O)c1c(OC)cccc1C4=O)C[C@@H]3O[C@H]1C[C@H](N)[C@H](O)[C@H](C)O1` [IV, Bis(daunomycin) Suberylhydrazone Dihydrochloride] has a response vs control in vivo at 25 mg/kg (P388 Leukemia in Mice; [10]) of 178%, a response vs control in vivo at 8 mg/kg (P388 Leukemia in Mice; Mus musculus, P388, ip, ip P388, treated ip, qd 1-9, optimum dose 8 mg/kg, read-out: Antitumor Efficacy T/C) of 245% and an IC50 [1, 7] of 4.9 µM. The IC50 [2, 8] was 2.4 µM.

With `COc1cccc2c1C(=O)c1c(O)c3c(c(O)c1C2=O)C[C@@](O)(C(C)=NNC(=O)C(=O)NN=C(C)[C@]1(O)Cc2c(O)c4c(c(O)c2[C@@H](O[C@H]2C[C@H](N)[C@H](O)[C@H](C)O2)C1)C(=O)c1c(OC)cccc1C4=O)C[C@@H]3O[C@H]1C[C@H](N)[C@H](O)[C@H](C)O1` [IX, Bis-(Daunomycin) Oxalylhydrazone Dihydrochloride] the response vs control in vivo at 25 mg/kg (P388 Leukemia in Mice; [10]) was 160%, the IC50 [1, 7] was 4.3 µM and the IC50 [2, 8] was 2.3 µM.

Work on `COc1cccc2c1C(=O)c1c(O)c3c(c(O)c1C2=O)C[C@@](O)(C(C)=NNC(=O)CCCCCCCCC(=O)NN=C(C)[C@]1(O)Cc2c(O)c4c(c(O)c2[C@@H](O[C@H]2C[C@H](N)[C@H](O)[C@H](C)O2)C1)C(=O)c1c(OC)cccc1C4=O)C[C@@H]3O[C@H]1C[C@H](N)[C@H](O)[C@H](C)O1` [V, Bis(Daunomycin) Sebacylhydrazone Dihydrochloride] yielded a response vs control in vivo at 12.5 mg/kg (P388 Leukemia in Mice; [6]) of 221%, a response vs control in vivo at 50 mg/kg (P388 Leukemia in Mice; [6]) of 163% and an IC50 [1, 4] of 10 µM. The IC50 [2, 5] was 1 µM.

With `COc1cccc2c1C(=O)c1c(O)c3c(c(O)c1C2=O)C[C@@](O)(C(C)=NNC(=O)CCC(=O)NN=C(C)[C@]1(O)Cc2c(O)c4c(c(O)c2[C@@H](O[C@H]2C[C@H](N(C)C)[C@H](O)[C@H](C)O2)C1)C(=O)c1c(OC)cccc1C4=O)C[C@@H]3O[C@H]1C[C@H](N(C)C)[C@H](O)[C@H](C)O1` [VI, Bis(N,N-dimethyldaunomycin) Succinylhydrazone Dihydrochloride] the response vs control in vivo at 25 mg/kg (P388 Leukemia in Mice; [10]) was 158%, the response vs control in vivo at 4 mg/kg (P388 Leukemia in Mice; Mus musculus, P388, ip, ip P388, treated ip, qd 1-9, optimum dose 4 mg/kg, read-out: Antitumor Efficacy T/C) was 178% and the IC50 [1, 7] was 19 µM. For the same compound, the IC50 [2, 8] was 3 µM.

Compound `COc1cccc2c1C(=O)c1c(O)c3c(c(O)c1C2=O)C[C@@](O)(C(CO)=NNC(=O)CCC(=O)NN=C(CO)[C@]1(O)Cc2c(O)c4c(c(O)c2[C@@H](O[C@H]2C[C@H](N)[C@H](O)[C@H](C)O2)C1)C(=O)c1c(OC)cccc1C4=O)C[C@@H]3O[C@H]1C[C@H](N)[C@H](O)[C@H](C)O1` [VII, Bis(adriamycin) Succinylhydrazone Dihydrochloride] has a response vs control in vivo at 18.8 mg/kg (P388 Leukemia in Mice; Mus musculus, P388, ip, ip P388, treated ip, q4d 5,9,13, optimum dose 18.8 mg/kg, read-out: Antitumor Efficacy T/C) of 160%, a response vs control in vivo at 6.25 mg/kg (P388 Leukemia in Mice; [9]) of 309% and an IC50 [1, 7] of 13.3 µM. For the same compound, the IC50 [2, 8] was 3.1 µM.

`COc1cccc2c1C(=O)c1c(O)c3c(c(O)c1C2=O)C[C@@](O)(C(C)=NNC(=O)CC(=O)NN=C(C)[C@]1(O)Cc2c(O)c4c(c(O)c2[C@@H](O[C@H]2C[C@H](N)[C@H](O)[C@H](C)O2)C1)C(=O)c1c(OC)cccc1C4=O)C[C@@H]3O[C@H]1C[C@H](N)[C@H](O)[C@H](C)O1` [VIII, Bis(daunomycin) Malonylhydrazone Dihydrochloride] was tested, and the response vs control in vivo at 6.25 mg/kg (P388 Leukemia in Mice; [9]) was 169%, the “Antitumor Efficacy (in words)” value (P388 Leukemia in Mice; ip P388, treated ip, q4d 5,9,13, dose not given) was “inactive” and the IC50 [1, 7] was 14.1 µM. The IC50 [2, 8] was 7.4 µM.

In the case of `COc1cccc2c1C(=O)c1c(O)c3c(c(O)c1C2=O)C[C@@](O)(C(C)=NNC(=O)CCCCCC(=O)NN=C(C)[C@]1(O)Cc2c(O)c4c(c(O)c2[C@@H](O[C@H]2C[C@H](N)[C@H](O)[C@H](C)O2)C1)C(=O)c1c(OC)cccc1C4=O)C[C@@H]3O[C@H]1C[C@H](N)[C@H](O)[C@H](C)O1` [X, Bis-(daunomycin) Pimelylhydrazone Dihydrochloride], the response vs control in vivo at 25 mg/kg (P388 Leukemia in Mice; [6]) is reported as 160%, the IC50 [1, 4] is reported as 2 µM and the IC50 [2, 5] is reported as 1.3 µM.
